According to patent US20220387370A1, “METHODS OF REDUCING NEUROLOGICAL DAMAGE IN WILSON DISEASE PATIENTS” (priority 2019, published 2022):
pKd: −log10 of the molar value. “Also recorded” adds a separate entry of the source. Like-named read-outs stand apart in the source and are kept apart here.

Key:
[1] = tested on: neurologic WD patients; details: cited from earlier work
[2] = unit inferred; read-out: Kd (copper affinity); cited from earlier work
[3] = tested on: HepG2, EA.hy926, U87MG and SHSY5Y cells; assay: Cu-albumin cell toxicity, CellTiter-Glo, all investigated cell lines; format: cell-based, human
Procedure: (§1) SHSY5Y (human neuroblastoma), U87MG (human astrocytoma), EA.hy926 (human endothelium) and HepG2 (human hepatocellular carcinoma) cells were from ATCC (Wesel, Germany) and were cultured in Dulbecco's Modified Eagle Medium (DMEM) supplemented with 10% FCS (Biochrom, Berlin, Germany) and 1% antibiotic-antimycotic (Life Technologies, Carlsbad, USA). All cells were maintained at 37° C. in a humidified atmosphere with 5% CO2.

[4] = tested on: Atp7b^−/− rats; assay: Chelator treatment of WD rats: copper in serum, urine and feces (ICP-OES); format: in vivo, rat
Procedure: Control Atp7b^+/- and WD Atp7b^-/- rats were fed ad libitum with normal chow (1314; 13.89 mg Cu/kg; Altromin Spezialfutter GmbH, […], Germany) and tap water. All rats were healthy at treatment start and presented no signs of acute liver damage (serum AST <200 U/L and serum bilirubin <0.5 mg/dl). […] Untreated Atp7b^+/- and Atp7b^-/- rats served as controls. Urine and feces were collected at 24-hour intervals for which rats were housed individually in metabolic cages for 4 days. After a two-day resting period off treatment in normal cages and group housing, rats were sacrificed for serum collection.

[5] = tested on: PBCEC monolayers; assay: Copper in the basolateral compartment of the Transwell PBCEC model (ICP-MS/MS); format: cell-based, porcine; details: 250 μM copper and 83.3 μM albumin, 250 μM chelator, after 48 h
Description: (§2) For transepithelial resistance (TEER) experiments (Srinivasan, B., et al., J Lab Autom, 2015. 20(2): p. 107-26), cryopreserved primary porcine brain capillary endothelial cells (PBCECs) were thawed and seeded either on rat tail collagen-coated 96-well plates for cytotoxicity testing using the Neutral red assay (Repetto, G., A. del Peso, and J. L. Zurita, Nat Protoc, 2008. 3(7): p. 1125-31) or Transwell® inserts (area: 1.12 cm^2, pore size: 0.4 μm: Corning, N.Y., USA) for barrier integrity studies. Cells were cultured for 48 hours in Earle's Medium 199 supplemented with 10% FCS, 50 U penicillin/mL, 50 μg/mL streptomycin, 100 μg/mL gentamycin and 0.7 mM I-glutamine and maintained at 37° C. in a humidified atmosphere with 5% CO2. […] TEER and capacitance values were continuously monitored over 48 h using a CellZscope device (nanoAnalytics, Münster, Germany). Only PBCEC monolayers with initial TEER values >600Ωcm^2 and capacitance values between 0.45 and 0.6 μF/cm^2 were used for permeability studies (Bornhorst, J., et al., J Biol Chem, 2012. 287(21): p. 17140-51). The barrier integrity was calculated by normalizing the TEER values to the respective start values.

[6] = tested on: PBCEC monolayers; assay: TEER and capacitance of PBCEC monolayers (endothelial blood-brain barrier model); format: cell-based, porcine
Description: as §2

[7] = tested on: HepG2, EA.hy926, U87MG and SHSY5Y cells; details: 750 μM copper, 250 μM albumin, 750 μM chelator
Procedure: 2×10^4 cells were seeded into each well of a 96-well plate and incubated overnight. […] Cell toxicity was either determined by CellTiter-Glo® assay (Promega, Madison, USA) or Trypan blue exclusion test.
Afterwards, cells were trypsinized and counted. Cell viability was determined by Trypan blue exclusion test.

[8] = tested on: PBCEC monolayers; assay: Electron microscopy of tight junctions of PBCECs; format: cell-based, porcine; details: copper-treated PBCECs, electron micrographs
Procedure: Electron microscopy of PBCECS grown on Transwell® inserts was performed as previously described (Ye, D., K. A. Dawson, and I. Lynch, Analyst, 2015. 140(1): p. 83-97) with minor modifications. Briefly, after fixation with 2.5% glutaraldehyde, cell monolayers were post-fixed with 1% osmium tetroxide for 30 min and dehydrated by ethanol.

[9] = in vivo; cited from earlier work
[10] = tested on: SHSY5Y cells; assay: Cellular copper content (ICP-OES), SHSY5Y; format: cell-based, human; details: 750 μM copper, 250 μM albumin, 750 μM chelator, vs Cu-albumin alone
Description: (§3) Afterwards, cells were trypsinized and counted.

[11] = tested on: HepG2, EA.hy926, U87MG and SHSY5Y cells; assay: Toxicity of the chelator itself in a copper-free setting, CellTiter-Glo
Procedure: as §1

[12] = tested on: tight junction protein claudin-5; assay: Immunocytochemistry staining of claudin-5 in PBCEC monolayers; format: cell-based, porcine; details: 250 μM copper and 83.3 μM albumin, 250 μM chelator
Procedure: Total copper was determined by ICP-MS/MS as previously described (Kopp, J. F., et al., J Trace Elem Med Biol, 2019. 54: p. 221-225). For the immunocytochemical staining of tight junction proteins, confluent PBCECs cultivated on Transwell® membrane inserts were processed as previously described ([…]., et al., Archives of Toxicology 2018. 92(2): p. 823-832). Briefly, PBCECs were fixed with formaldehyde and permeabilized using Triton X-100. After blocking of unspecific binding sites by albumin, the cells were incubated with the either anti-claudin 5 or anti-ZO-1 antibody (Zytomed Systems GmbH, Berlin, Germany). Following a second blocking step, the cells were treated with an Alexa Fluor® 488 conjugated secondary antibody (Invitrogen, Molecular Probes Inc., Eugene, USA). Hoechst 33258 (Merck, Darmstadt, Germany) was used to stain cell nuclei. Subsequently, membranes were cut out of the inserts and mounted in Aqua Poly/Mount (Polysciences Inc., Washington, USA). After a solidification period of 24 hours, the samples were evaluated using a DM6 B fluorescence microscope by Leica Microsystems CMS GmbH (Wetzlar, Germany) in combination with the Leica Application Suite X.

[13] = tested on: EA.hy926 cells; assay: Cellular copper content (ICP-OES), EA.hy926; format: cell-based, human; details: EA.hy926; 750 μM copper, 250 μM albumin, 750 μM chelator; vs Cu-albumin alone
Description: as §3

[14] = tested on: HepG2 cells; assay: Cu-albumin cell toxicity, CellTiter-Glo, HepG2; format: cell-based, human; details: HepG2, 750 μM chelator
Procedure: as §1

[15] = tested on: EA.hy926 and U87MG cells; assay: Electron microscopy of mitochondrial structure; format: cell-based, human; details: electron micrographs, co-treatment with chelator
Description: Electron microscopy of cells was done as previously described ([…]., et al., Cell Mol Gastroenterol Hepatol, 2018. 7(3): p. 571-596) on a 1200EX electron microscope (JEOL, […], Japan) at 60 kv. Pictures were taken with a […] digital camera (Olympus, Hamburg, Germany) and processed by the iTEM software package (analySIS FIVE, Olympus, Hamburg, Germany).

[16] = tested on: HepG2, EA.hy926, U87MG and SHSY5Y cells; assay: Cellular copper content (ICP-OES), all cell lines; format: cell-based, human; details: 750 μM copper, 250 μM albumin, 750 μM chelator, 24 h; vs Cu-albumin alone
Description: as §3

[17] = tested on: HepG2 cells; assay: Cellular copper content (ICP-OES), HepG2; format: cell-based, human; details: 750 μM copper, 250 μM albumin, 750 μM chelator, vs Cu-albumin alone
Description: as §3

[18] = tested on: EA.hy926 cells; assay: Cu-albumin cell toxicity, CellTiter-Glo, EA.hy926; format: cell-based, human; details: EA.hy926, 750 μM chelator
Procedure: as §1

SMILES: [SH-].[SH-].[S]=[Mo]=[S] [TTM, tetrathiomolybdate]
- neurological worsening ([1]; human, in vivo): hardly reported

SMILES: N[C@@H](Cc1c[nH]cn1)C(=O)O [histidine]
- pKd [2]: ~9.00

SMILES: CC(C)(S)[C@@H](N)C(=O)O [DPA, (2S)-2-amino-3-methyl-3-sulfanylbutanoic acid, reference compound]
- CellTiterGlo-assessed cell viability / Cu-albumin toxicity ([3]; 750 μM chelator, 250 μM albumin, copper 250 to 2500 μM, 24 h): much less effective; also recorded: not significantly increased
- CellTiterGlo-assessed cell viability / Cu-albumin toxicity ([3]; low dose of chelator (250 μM)): no effect on cell viability
- fecal copper excretion ([4]; during treatment): unchanged
- urinary copper excretion ([4]; during treatment, urine collected over 24 h): significantly increased; also recorded: significant increase
- serum copper levels ([4]; i.p. once daily for 4 consecutive days (ALXN1840 2.5 mg/kg bw, DPA 100 mg/kg bw), serum at sacrifice after resting period): elevated blood copper was not observed
- share of net copper intake found in the urine ([4]; upon DPA treatment, total net uptake 3.95 μmol/24 h): 10%
- copper found in the urine ([4]; upon DPA treatment, unpublished observation): 0.4 μmol/24 h
- copper in the basolateral compartment (copper influx) [5]: could not be avoided
- transepithelial electrical resistance (TEER) ([6]; 250 μM copper and 83.3 μM albumin, 250 μM chelator, 48 h): not able to prevent the copper-induced TEER loss; also recorded: reduction of the TEER comparable to Cu-albumin treatment alone
- capacitance values ([6]; Cu-albumin treatment in the absence or presence of chelator): unaffected
- Trypan blue-assessed cell viability / copper-related cell toxicity [7]: could not be avoided
- loss of electron-dense protein complexes at the cell-cell borders [8]: not protected and not
- blood peak after application [9]: 1 to 3 h
- cellular copper content [10]: tendentiously lower copper content
- non-toxic concentrations ([11]; copper-free setting): up to 2 mM
- CellTiterGlo-assessed cell viability with chelator alone ([11]; without external Cu-albumin addition): not observed
- patients with dramatic symptom worsening ([1]; shortly upon treatment onset): 19-52%
- neurological worsening ([1]; treated patients): frequently occur
- claudin-5 staining pattern / copper-induced gap formation [12]: could not prevent copper-induced gap formation; also recorded: did not prevent copper-induced gap formation
- cellular copper content [13]: tendentiously lower copper content
- CellTiterGlo-assessed cell viability / Cu-albumin toxicity [14]: modest rescuing effect
- Cu-albumin-induced alterations of mitochondrial structure [15]: no/minor effect; also recorded: no positive effect
- cellular copper content [16]: in none of the cell lines a significant de-coppering was noted; also recorded: did not change the amount of copper uptake
- cellular copper content [17]: highly similar cellular copper contents
- CellTiterGlo-assessed cell viability / Cu-albumin toxicity [18]: completely absent
